The target of the first assay is Acetylcholinesterase (Electrophorus electricus, UniProt O42275). In words: Inhibition of electric eel AChE using acetylthiocholine substrate by Ellman's reagent based method. (Ellman's reagent forms a yellow product with free thiols.)
Chain of Acetylcholinesterase (O42275 whole entry): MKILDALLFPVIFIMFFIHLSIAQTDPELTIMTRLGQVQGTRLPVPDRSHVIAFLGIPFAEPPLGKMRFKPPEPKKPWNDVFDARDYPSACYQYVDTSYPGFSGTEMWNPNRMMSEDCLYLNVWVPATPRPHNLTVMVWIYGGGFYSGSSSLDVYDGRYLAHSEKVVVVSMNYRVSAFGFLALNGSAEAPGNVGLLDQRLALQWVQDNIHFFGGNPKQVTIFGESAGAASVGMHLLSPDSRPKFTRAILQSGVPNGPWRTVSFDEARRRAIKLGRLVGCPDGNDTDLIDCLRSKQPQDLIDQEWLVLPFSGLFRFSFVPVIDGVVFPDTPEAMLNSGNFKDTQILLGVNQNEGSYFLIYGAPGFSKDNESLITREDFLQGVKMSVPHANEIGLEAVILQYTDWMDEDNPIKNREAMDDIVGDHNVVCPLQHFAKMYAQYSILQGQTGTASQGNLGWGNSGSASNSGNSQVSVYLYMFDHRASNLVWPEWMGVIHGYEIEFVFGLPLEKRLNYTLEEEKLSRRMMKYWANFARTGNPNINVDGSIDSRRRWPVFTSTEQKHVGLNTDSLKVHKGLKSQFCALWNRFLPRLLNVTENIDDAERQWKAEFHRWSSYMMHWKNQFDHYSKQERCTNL
Chain of Acetylcholinesterase (Electrophorus electricus) (O42275 24-633 limits assumed): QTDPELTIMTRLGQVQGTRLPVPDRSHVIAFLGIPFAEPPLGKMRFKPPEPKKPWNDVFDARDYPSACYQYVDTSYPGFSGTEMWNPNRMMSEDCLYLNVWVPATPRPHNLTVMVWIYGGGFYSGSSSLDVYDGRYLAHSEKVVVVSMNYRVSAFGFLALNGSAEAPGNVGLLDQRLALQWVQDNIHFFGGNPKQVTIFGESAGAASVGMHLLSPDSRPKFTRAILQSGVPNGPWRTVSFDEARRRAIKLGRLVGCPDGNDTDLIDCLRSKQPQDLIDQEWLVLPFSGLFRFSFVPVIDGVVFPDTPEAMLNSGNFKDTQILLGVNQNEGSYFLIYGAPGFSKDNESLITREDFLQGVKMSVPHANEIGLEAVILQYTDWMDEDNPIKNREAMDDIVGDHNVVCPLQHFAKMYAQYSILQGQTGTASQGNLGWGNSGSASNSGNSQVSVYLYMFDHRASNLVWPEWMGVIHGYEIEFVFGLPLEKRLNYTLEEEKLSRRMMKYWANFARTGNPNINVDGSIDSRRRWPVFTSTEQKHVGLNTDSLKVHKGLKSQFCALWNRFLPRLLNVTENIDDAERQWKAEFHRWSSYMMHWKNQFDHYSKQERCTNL
Broadly, the IC50 is the concentration that inhibits the measured activity by half. The low end stands for greater potency in that assay, the high end for weaker potency in that assay. `COc1cccc2cc(-c3cc[n+](Cc4ccc([N+](=O)[O-])cc4)cc3)oc12` registered an IC50 of 10.6 nM. On the same count and under the same terms, for `Brc1ccc(C[n+]2ccc(-c3cc4ccccc4o3)cc2)cc1` the value was 16 nM; for `COc1cccc2cc(-c3cc[n+](Cc4ccccc4)cc3)oc12`, 26.5 nM. `COc1cccc2cc(-c3cc[n+](Cc4ccc(Br)cc4)cc3)oc12`: the IC50 turned out to be 29.5 nM. Still for that read-out and setting: for `Cc1cc(C)cc(C[n+]2ccc(-c3cc4ccccc4o3)cc2)c1` the value was 4.1 nM; for `O=[N+]([O-])c1ccc(C[n+]2ccc(-c3cc4cc(Br)ccc4o3)cc2)cc1`, 8.1 nM; for `COc1cccc2cc(-c3cc[n+](Cc4cccc(F)c4)cc3)oc12`, 18.9 nM. Regarding `Brc1ccc(C[n+]2ccc(-c3cc4cc(Br)ccc4o3)cc2)cc1`, half-maximal inhibition (IC50) required 31.5 nM.

As for `COc1cccc2cc(-c3cc[n+](Cc4cccc(Br)c4)cc3)oc12`, inhibition was half-maximal at 22.4 nM (IC50). The same measure, in the same setting: for `Fc1cccc(C[n+]2ccc(-c3cc4cc(Br)ccc4o3)cc2)c1` the value was 9.6 nM; for `Cc1ccccc1C[n+]1ccc(-c2cc3ccccc3o2)cc1`, 6.8 nM. The compound `Brc1ccc2oc(-c3cc[n+](Cc4ccccc4)cc3)cc2c1` showed an IC50 of 13.5 nM. The same measure, in the same setting: for `O=[N+]([O-])c1ccccc1C[n+]1ccc(-c2cc3ccccc3o2)cc1` the value was 4.9 nM; for `O=[N+]([O-])c1ccc(C[n+]2ccc(-c3cc4ccccc4o3)cc2)cc1`, 5.8 nM; for `Fc1ccc(C[n+]2ccc(-c3cc4cc(Br)ccc4o3)cc2)cc1`, 8.7 nM.

The next assay addresses Acetylcholinesterase (Electrophorus electricus) (UniProt O42275). The experiment in a line: Potency index, ratio of IC50 for donepezil to IC50 for compound against electric eel AChE using acetylthiocholine substrate by Ellman's reagent based method.
Take `Cc1cc(C)cc(C[n+]2ccc(-c3cc4ccccc4o3)cc2)c1`: the Ratio IC50 is 7.

These data come from ChEMBL document CHEMBL3407445, “Benzofuran-derived benzylpyridinium bromides as potent acetylcholinesterase inhibitors” (Eur J Med Chem, 2015).
